The text below walks through data of patent US4755527A, “Aryl substituted aminomethyl benzene derivatives” (priority 1985, dated 1988).

Data set [1] deals with ventricular arrhythmias induced by two-stage ligation of the left anterior descending coronary artery (Harris dog). Briefly: Antiarrhythmic activity by coronary ligation in the Harris dog model (i.v. infusion). It is filed as in vivo, dog (adult mongrel). The settings on record: Canis lupus familiaris, read-out: Antiarrhythmic ED in Harris Dog. The text has this:
The following examples describe the pharmacological evaluation of the compounds made in accordance with the present invention. In particular, these examples describe the evaluation of antiarrhythmic activity by coronary ligation in the well known Harris dog model. Ventricular arrhythmias were induced in adult mongrel dogs (10-15 kg) of either sex by two-stage ligation of the left anterior descending coronary artery. […] The test compound in saline was infused intravenously at a cumulative rate of […] to 1.2 mg/kg/min (base) unitl normal sinus rhythm or toxicity occurred. Normal sinus rhythm was defined as 90-100% normal complexes over a 5 min period.

Data set [2] has as its system Guinea Pig Ileum. Put plainly: In vitro evaluation of anticholinergic activity in the isolated guinea pig ileum. More on the design: species or system guinea pig (male Hartley). The settings on record: Cavia porcellus, read-out: Anticholinergic Inhibition of Guinea Pig Ileum (% inhibition at 4 mg/L). The procedure: The following examples describe the in vitro evaluation of anticholinergic activity in the isolated guinea pig ileum. Fasted, male Hartley guinea pigs (300-400 g) were killed by a blow to the head. […] One end of the ileal strip was impaled onto a platinum wire electrode; and the other end was tied to a stationary glass rod. Basal tension was set at 0.1-0.3 g and peak developed tension in response to field stimulation (100-150 V, 10 msec pulse duration, 0.2 Hz) was measured with a tension transducer.

The test system of data set [3] is patients. The settings on record: cited from earlier work.
The test system of data set [4] is cardiac cells. Particulars: cited from earlier work.
Data set [5] concerns ventricular arrhythmias induced by ouabain (Ouabain dog). Briefly: Antiarrhythmic activity in the Ouabain dog model (i.v. infusion). It is filed as in vivo. Particulars: Canis lupus familiaris, read-out: Antiarrhythmic ED in Ouabain Dog. The method, then: The following examples describe the pharmacological evaluation of the compounds in accordance with the present invention. In particular, these examples describe the evaluation of antiarrhythmic activity in the Oubain dog model. […] The test compound was infused intravenously in saline at a rate of about 0.3 to about 5 mg/kg/min until normal sinus rhythm or toxicity occurred. Normal sinus rhythm was defined as 90-100% normal complexes over a 5 minute period.

[6] abbreviates: Harris dog, IV infusion, ED is the effective dose required to sustain normal sinus rhythm.
[7] abbreviates: 4 mg/L, inhibition of field-stimulated contractile tension.
[8] abbreviates: Ouabain dog, IV infusion, ED is the effective dose required to sustain normal sinus rhythm.
Where [9] appears, read: administered to patients for the management of arrhythmias.

Where two headings read alike, the source gives them in different places.

With `C=C[C@H]1C[N@@]2CC[C@H]1C[C@@H]2[C@@H](O)c1ccnc2ccc(OC)cc12` (stereo in doubt) [Quinidine, 6-methoxy-α-(5'-vinyl-2-quinuclidinyl)-4-quindinemethanol], the minimal effective dose in data set [1] (setting [6]) amounted to 10.1 mg/kg. For the same molecule, the inhibition at 4 µg/mL in data set [2] (setting [7]) was 62%. Besides, the “adverse side-effects in patients” value in data set [3] (human, in vivo) was “cardiotoxicity, diarrhea, nausea, vomiting, fever, hypertension and depression of myocardial contractility”. In addition, in data set [4], the “anticholinergic activity (in words, background)” value (“anticholinergic activity” below) was “indirect anticholinergic actions”; the “effect on impulse formation, conduction velocity and refractory period of cardiac cells” value is “depress impulse formation, slow conduction velocity, and increase the duration of the refractory period of cardiac cells”.
As to `Cc1ccc(C(=O)Nc2cc(CN3CCCC3)c(O)c(CN3CCCC3)c2)cc1` [V, N--(4-methylbenzoyl)-3,5,-bis(N--pyrrolidinylmethyl)-4-hydroxyaniline], the minimal effective dose worked out at 15 mg/kg in data set [1] (setting [6]) and 3 mg/kg in data set [5] (setting [8]). Besides, the inhibition at 4 µg/mL in data set [2] (setting [7]) stood at 22%.
For `O=C(Nc1cc(CN2CCCC2)c(O)c(CN2CCCC2)c1)c1ccc(Cl)cc1` [IV, N--(4-chlorobenzoyl)-3,5,-bis(N--pyrrolidinylmethyl)-4-hydroxyaniline], in that order: 7 mg/kg, 1.5 mg/kg and 49%.
Take `Oc1c(CN2CCCC2)cc(Nc2ncnc3ccccc23)cc1CN1CCCC1` [Changrolin, 4-[3',5'-bis[N-pyrrolidinylmethyl]-4'-hydroxyanilino]quinazoline, reference compound]: the minimal effective dose was 10.3 mg/kg in data set [1] (setting [6]) and 5.5 mg/kg in data set [5] (setting [8]). Further, the inhibition at 4 µg/mL in data set [2] (setting [7]) came out at 43%. Further, in data set [3] (setting [9]), the “adverse side-effects in patients” value is reported as “skin discoloration in some patients”. Also, in data set [3] (human, in vivo), the “antiarrhythmic effectiveness (in words, background)” value is listed as “effective antiarrhythmic agent”. Further, in data set [4], the “anticholinergic activity” value is reported as “substantial anticholinergic activity”.
As for `Oc1c(CN2CCCC2)cc(OCc2ccccc2)cc1CN1CCCC1` [Example I, 4-benzyloxy-2,6-bis(pyrrolidinylmethyl)phenol], the values for the minimal effective dose in data set [1] (setting [6]) and in data set [5] (setting [8]) were 4.5 mg/kg and 1.5 mg/kg, respectively. In data set [2] (setting [7]), the inhibition at 4 µg/mL was found to be 62%.
As for `CC(C)N(CCC(C(N)=O)(c1ccccc1)c1ccccn1)C(C)C` (stereo not drawn) [Disopyramide, α[2-(diisopropylamino)-ethyl]α-phenol-2-pyridineacetamide, reference compound], the minimal effective dose amounted to 6.8 mg/kg in data set [1] (iv) and 4.4 mg/kg in data set [5] (iv). Also, the inhibition at 4 µg/mL in data set [2] came to 81%. In addition, in data set [3] (setting [9]), the “adverse side-effects in patients” value is “dryness of the mouth, blurred vision, constipation, and urinary retention, and depression of myocardial contractility”. In addition, the “anticholinergic activity” value in data set [4] was “indirect anticholinergic actions”. For the same molecule, the “effect on impulse formation, conduction velocity and refractory period of cardiac cells” value in data set [4] was “depress impulse formation, slow conduction velocity, and increase the duration of the refractory period of cardiac cells”.
As to `O=C(Nc1cc(CN2CCCC2)c(O)c(CN2CCCC2)c1)c1ccc(C(F)(F)F)cc1` [XIII, N--(4-trifluoromethylbenzoyl)-3,5,-bis(N--pyrrolidinylmethyl)-4-hydroxyaniline], the minimal effective dose is 9 mg/kg in data set [1] (setting [6]) and 5.25 mg/kg in data set [5] (setting [8]). In addition, the inhibition at 4 µg/mL in data set [2] (setting [7]) stood at 43%.
